Data on two molecules can be found in publication PMC11928621 (Nature Communications, 2025).

In one data set the target is T1, LYCHOS (Homo sapiens, UniProt Q7Z3F1).
T1 sequence (Q7Z3F1 1-870): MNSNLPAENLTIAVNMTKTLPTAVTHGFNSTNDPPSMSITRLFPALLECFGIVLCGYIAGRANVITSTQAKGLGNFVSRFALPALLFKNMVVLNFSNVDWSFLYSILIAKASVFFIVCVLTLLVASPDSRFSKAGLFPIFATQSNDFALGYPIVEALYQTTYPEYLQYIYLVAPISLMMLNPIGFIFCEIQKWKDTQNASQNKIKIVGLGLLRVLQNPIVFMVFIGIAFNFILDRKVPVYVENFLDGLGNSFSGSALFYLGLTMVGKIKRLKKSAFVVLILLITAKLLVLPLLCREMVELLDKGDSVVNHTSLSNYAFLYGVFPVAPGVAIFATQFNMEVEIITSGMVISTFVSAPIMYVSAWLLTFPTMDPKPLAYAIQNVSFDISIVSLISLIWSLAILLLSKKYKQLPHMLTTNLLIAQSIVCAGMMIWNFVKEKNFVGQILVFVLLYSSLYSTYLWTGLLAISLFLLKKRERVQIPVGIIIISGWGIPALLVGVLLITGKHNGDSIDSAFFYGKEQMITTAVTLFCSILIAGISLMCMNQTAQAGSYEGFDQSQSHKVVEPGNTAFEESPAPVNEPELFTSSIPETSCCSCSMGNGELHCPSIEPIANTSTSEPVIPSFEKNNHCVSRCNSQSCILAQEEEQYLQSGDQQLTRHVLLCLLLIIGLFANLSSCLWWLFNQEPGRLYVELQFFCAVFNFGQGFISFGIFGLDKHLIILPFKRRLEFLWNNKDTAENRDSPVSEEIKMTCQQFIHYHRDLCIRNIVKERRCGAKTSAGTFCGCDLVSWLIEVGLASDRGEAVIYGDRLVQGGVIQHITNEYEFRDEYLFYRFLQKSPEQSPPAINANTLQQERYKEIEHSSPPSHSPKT
Nature of the data set: SPR Kd and cryo-EM structure of the complex. Format: binding.

The data set “cryo-EM structure” deals with the molecule itself. The experiment in a line: cryo-EM structure.

Counter-ions that a name gives are not always drawn.

For the molecule `O=S(=O)(O)Oc1c[nH]c2ccccc12` [IS, indoxyl sulfate], the dissociation constant (Kd) (commonly the constant that tells how readily two partners part at equilibrium) on LYCHOS was roughly 150 µM.

B1: human LYCHOS (lysosomal cholesterol signaling protein), C-terminal FLAG and 10×His tags (natural protein, UniProt Q7Z3F1 1-870, looked up)
chain: T1 sequence (Q7Z3F1 1-870)
modifications: N-acetylglucosamine linked to Asn309
As to B1, the stoichiometry N – broadly, a count of units in the complex or per binding partner – in “cryo-EM structure” stood at 2.
